# Reference: patent US8394971B2, “Indole derivatives as selective androgen receptor modulators (SARMS)” (Janssen Pharmaceutica N.V., priority 2004, dated 2013)
# What was measured:
# [1] = molecular target: T1, androgen receptor (adenovirus AdEasy+rAR in L929 cells) (Rattus norvegicus, UniProt P15207); assay: L929 Androgen Receptor Functional Assay, Adenovirus Transduction; format: cell-based; details: 3000 nM; for % Activity: L929 agonist testing; for % Inhibition: L929 antagonist testing with R1881
# T1 construct: expressed in transfected cells
# T1 sequence (P15207 1-902): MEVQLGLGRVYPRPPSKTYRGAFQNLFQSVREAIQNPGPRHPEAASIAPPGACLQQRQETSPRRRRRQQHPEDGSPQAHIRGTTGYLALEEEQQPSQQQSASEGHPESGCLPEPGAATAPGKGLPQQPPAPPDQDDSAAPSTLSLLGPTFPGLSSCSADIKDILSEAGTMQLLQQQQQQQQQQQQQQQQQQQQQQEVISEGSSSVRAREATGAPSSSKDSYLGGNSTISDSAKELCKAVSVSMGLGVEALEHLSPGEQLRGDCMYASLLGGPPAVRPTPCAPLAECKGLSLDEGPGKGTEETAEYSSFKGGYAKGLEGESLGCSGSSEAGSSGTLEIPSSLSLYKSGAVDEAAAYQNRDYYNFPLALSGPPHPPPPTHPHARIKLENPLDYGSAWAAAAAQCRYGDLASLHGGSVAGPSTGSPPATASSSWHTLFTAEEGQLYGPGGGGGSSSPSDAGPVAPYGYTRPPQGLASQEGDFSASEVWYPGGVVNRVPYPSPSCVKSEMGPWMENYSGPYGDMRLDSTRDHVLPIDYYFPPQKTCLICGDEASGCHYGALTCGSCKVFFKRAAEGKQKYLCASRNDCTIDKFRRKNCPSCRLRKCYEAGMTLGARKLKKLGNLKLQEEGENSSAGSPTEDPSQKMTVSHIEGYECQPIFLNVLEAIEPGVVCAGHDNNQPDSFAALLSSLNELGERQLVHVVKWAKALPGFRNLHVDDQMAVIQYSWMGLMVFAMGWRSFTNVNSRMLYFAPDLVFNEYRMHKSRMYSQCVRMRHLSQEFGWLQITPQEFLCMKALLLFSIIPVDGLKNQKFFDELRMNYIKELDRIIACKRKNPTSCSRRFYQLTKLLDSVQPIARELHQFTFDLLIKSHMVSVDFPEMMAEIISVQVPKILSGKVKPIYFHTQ
# Summary of the method: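 Luminescent reporter readout after 48 h at 37 °C: rat AR delivered by adenovirus (AdEasy+rAR, moi 1:500) into L929 cells grown without phenol red in charcoal-treated serum. Antagonist wells also received R1881 (2.5× dilution at 2.5 nM).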
# [2] = test system: testosterone-enhanced ventral prostate and seminal vesicle weights in castrated male Sprague Dawley rats; assay: Ventral Prostate and Seminal Vesicle Weight In Vivo Assay; design: species or system rat; details: immature castrated rats; once daily for five days, usually orally at 40 mg/kg, with testosterone propionate 2 mg/kg s.c.
# Summary of the method: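 Immature (~50 g) castrated Sprague Dawley rats dosed once daily for five days with compound (usually oral, 40 mg/kg, cyclodextrin or methylcellulose vehicle) plus testosterone propionate 2 mg/kg s.c. Wet ventral prostate and seminal vesicle weights taken on day six; activity judged by prostate weight or body-weight-adjusted % inhibition.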
Structure (SMILES),% Activity [1],active / inactive (inhibition of testosterone-enhanced prostate weight) [2],% Inhibition [1]
CC(O)(C[S+]([O-])Cc1ccccc1)c1cc2cc([N+](=O)[O-])c(C(F)(F)F)cc2[nH]1 (mixture of isomers) [compound 161],2%,inactive,–
CSCCC(C)(O)c1cc2cc([N+](=O)[O-])c(C(F)(F)F)cc2[nH]1 (racemic) [compound 47],2%,inactive,75%
COc1ccc(S(=O)(=O)CC(C)(O)c2cc3cc(Cl)c(C(F)(F)F)cc3[nH]2)cc1 (racemic) [compound 129],−5%,inactive,−8%
COc1ccc(SCC(C)(O)c2cc3cc(Cl)c(C(F)(F)F)cc3n2S(C)(=O)=O)cc1 (racemic) [compound 130],−5%,–,–
CC(C)CSCC(C)(O)c1cc2cc([N+](=O)[O-])c(C(F)(F)F)cc2[nH]1 (racemic) [compound 170],2%,active,67%
